Results published in patent publication US20260116922A1 (UNIVERSITAET WIEN, priority 2021, published 2026).
*1 amine or outer side, *2 acyl side, *3 side chain or, on linkers, in order; H or OH if unused. Where a SMILES comes first, the peptide text is derived from it. Bridges are numbered along the chain shown (N, C = ends). [ ]: non-standard residue; d: D form. The star is where a group is joined. N(4-F-Bzl)Gly = O=C(O)CNCc1ccc(F)cc1; αMeY = C[C@](N)(Cc1ccc(O)cc1)C(=O)O; Gly(cPent) = N[C@H](C(=O)O)C1CCCC1; αMeL = CC(C)C[C@](C)(N)C(=O)O; αMeV = CC(C)[C@](C)(N)C(=O)O; Thz = O=C(O)[C@@H]1CSCN1; X1 = O=C(CCC[*:2])[*:1]; Dap = NC[C@H](N)C(=O)O; Piv = CC(C)(C)C(=O)*

Tested on: not listed separately
Assay: in vitro
Details: simulated gi fluid

| Compound | half-life |
| --- | --- |
| CC[C@H](C)[C@@H]1NC(=O)[C@H](Cc2ccc(O)cc2)NC(=O)[C@@H](N)CSSC[C@@H](C(=O)N2CCC[C@H]2C(=O)N[C@@H](CC(C)C)C(=O)NCC(N)=O)NC(=O)[C@H](CC(N)=O)NC(=O)[C@H](CCC(N)=O)NC1=O [OT, oxytocin] | > 1440 min |

Tested on: not listed separately
Assay: Stability in simulated intestinal fluid (SIF)
Details: relative stability compared with SIF stability of oxytocin (8±1 min); SIF pH 6.8, pancreatin, 37° C.
Experimental: (§1) Simulated intestinal fluid (SIF). […] The solution was centrifuged, and syringe filtered before use.
(§2) Stability assay procedure. Stock solutions (1 mM) of test peptides were prepared in ddH2O. […] The peptide stock solution (30 μL) was added to the fluid, the mixture was vortexed and incubated at 37° C. […] All samples were centrifuged (5 min, 16,000×g) and stored at 4° C. before analysis.
(§3) RP-HPLC-UV(-MS) analysis of stability samples. […] 30 μL sample were injected on a Kromasil Classic C1S HPLC column (2.1×150 mm, 100 Å, 5 μm) equipped with a guard column (C18, 100 Å, 5 μm, 2.1 mm). […] Solvent A: 0.1% TFA in ddH2O. Solvent B: 0.08% TFA in ACN.
(§4) Data analysis. […] Peak areas (mAU×min) at individual time points were normalized to the mean value of time point zero (y(t0)=100%). To calculate compound half-lives (t1/2), a one-phase exponential decay function was fitted to normalized data points via a nonlinear regression in GraphPad Prism (Version 9) (GraphPad Software Inc., La Jolla, California, USA). The following constraints were applied: (i) y(t0) constant equal to 100, (ii) plateau constant equal to 0.

| Compound | SIF stability [fold OT] |
| --- | --- |
| CC[C@H](C)[C@@H]1NC(=O)[C@H](Cc2ccc(O)cc2)NC(=O)[C@@H](N)CSSC[C@@H](C(=O)N2CCC[C@H]2C(=O)N[C@@H](CCCCNC(C)=O)C(=O)NCC(N)=O)NC(=O)[C@H](CC(N)=O)NC(=O)[C@H](CCC(N)=O)NC1=O [Compound 1] | 10-100 fold OT |
| CC[C@H](C)[C@@H]1NC(=O)[C@H](Cc2ccc(O)cc2)NC(=O)[C@@H](N)CSSC[C@@H](C(=O)N2CCC[C@H]2C(=O)N[C@@H](CNC(C)=O)C(=O)NCC(N)=O)NC(=O)[C@H](CC(N)=O)NC(=O)[C@H](CCC(N)=O)NC1=O [Compound 2] | 10-100 fold OT |
| CC[C@H](C)[C@@H]1NC(=O)[C@H](Cc2ccc(O)cc2)NC(=O)[C@@H](N)CSSC[C@@H](C(=O)N2CCC[C@H]2C(=O)N[C@@](C)(CC(C)C)C(=O)NCC(N)=O)NC(=O)[C@H](CC(N)=O)NC(=O)[C@H](CCC(N)=O)NC1=O [Compound 3] | 10-100 fold OT |
| CC[C@H](C)[C@@H]1NC(=O)[C@H](Cc2ccc(O)cc2)NC(=O)[C@@H](N)CSSC[C@@H](C(=O)N2CCC[C@H]2C(=O)N[C@H](CC(=O)NCC(N)=O)CC(C)C)NC(=O)[C@H](CC(N)=O)NC(=O)[C@H](CCC(N)=O)NC1=O [Compound 4] | 10-100 fold OT |
| CC[C@H](C)[C@@H]1NC(=O)[C@H](Cc2ccc(OC)cc2)NC(=O)CCCSC[C@@H](C(=O)N2CCC[C@H]2C(=O)N[C@@H](CCCCNC(C)=O)C(=O)NCC(N)=O)NC(=O)[C@H](CC(N)=O)NC(=O)[C@H](CCC(N)=O)NC1=O [Compound 5] (Y(Me)IQNCPK(Ac)G-NH2; linker N-5 via X1) | >100 fold OT |
| CC[C@H](C)[C@@H]1NC(=O)[C@H](Cc2ccc(OC)cc2)NC(=O)CCCSC[C@@H](C(=O)N2CCC[C@H]2C(=O)N[C@@H](CNC(C)=O)C(=O)NCC(N)=O)NC(=O)[C@H](CC(N)=O)NC(=O)[C@H](CCC(N)=O)NC1=O [Compound 6] (Y(Me)IQNCP[Dap](Ac)G-NH2; linker N-5 via X1) | >100 fold OT |
| CC[C@H](C)[C@@H]1NC(=O)[C@H](Cc2ccc(OC)cc2)NC(=O)CCCSC[C@@H](C(=O)N2CCC[C@H]2C(=O)N[C@@](C)(CC(C)C)C(=O)NCC(N)=O)NC(=O)[C@H](CC(N)=O)NC(=O)[C@H](CCC(N)=O)NC1=O [Compound 7] (Y(Me)IQNCP[αMeL]G-NH2; linker N-5 via X1) | >100 fold OT |
| CC[C@H](C)[C@@H]1NC(=O)[C@H](Cc2ccc(OC)cc2)NC(=O)CCCSC[C@@H](C(=O)N(CC(=O)N[C@@H](CNC(C)=O)C(=O)NCC(N)=O)Cc2ccc(F)cc2)NC(=O)[C@H](CC(N)=O)NC(=O)[C@H](CCC(N)=O)NC1=O [Compound 8] (Y(Me)IQNC[N(4-F-Bzl)Gly][Dap](Ac)G-NH2; linker N-5 via X1) | 10-100 fold OT |
| CC[C@H](C)[C@@H]1NC(=O)[C@](C)(Cc2ccc(O)cc2)NC(=O)CCCSC[C@@H](C(=O)N2CCC[C@H]2C(=O)N[C@@H](CNC(C)=O)C(=O)NCC(N)=O)NC(=O)[C@H](CC(N)=O)NC(=O)[C@H](CCC(N)=O)NC1=O [Compound 9] ([αMeY]IQNCP[Dap](Ac)G-NH2; linker N-5 via X1) | >100 fold OT |
| CC[C@H](C)[C@@H]1NC(=O)[C@](C)(Cc2ccccc2)NC(=O)CCCSC[C@@H](C(=O)N2CCC[C@H]2C(=O)N[C@@H](CNC(C)=O)C(=O)NCC(N)=O)NC(=O)[C@H](CC(N)=O)NC(=O)[C@H](CCC(N)=O)NC1=O [Compound 10] | >100 fold OT |
| CC[C@H](C)[C@@H]1NC(=O)[C@H](Cc2ccc(C)cc2)NC(=O)CCCSC[C@@H](C(=O)N2CCC[C@H]2C(=O)N[C@@H](CNC(C)=O)C(=O)NCC(N)=O)NC(=O)[C@H](CC(N)=O)NC(=O)[C@H](CCC(N)=O)NC1=O [Compound 11] | 10-100 fold OT |
| CC[C@H](C)[C@@H]1NC(=O)[C@H](Cc2ccc(C(F)(F)F)cc2)NC(=O)CCCSC[C@@H](C(=O)N2CCC[C@H]2C(=O)N[C@@H](CNC(C)=O)C(=O)NCC(N)=O)NC(=O)[C@H](CC(N)=O)NC(=O)[C@H](CCC(N)=O)NC1=O [Compound 12] | >100 fold OT |
| CC[C@H](C)[C@@H]1NC(=O)[C@H](Cc2ccc(OC)cc2)NC(=O)CCCSC[C@@H](C(=O)N2CCC[C@H]2C(=O)N[C@@H](CNC(=O)C(C)(C)C)C(=O)NCC(N)=O)NC(=O)[C@H](CC(N)=O)NC(=O)[C@H](CCC(N)=O)NC1=O [Compound 13] (Y(Me)IQNCP[Dap](Piv)G-NH2; linker N-5 via X1) | > 100 fold OT |
| COc1ccc(C[C@@H]2NC(=O)CCCSC[C@@H](C(=O)N3CCC[C@H]3C(=O)N[C@@H](CNC(C)=O)C(=O)NCC(N)=O)NC(=O)[C@H](CC(N)=O)NC(=O)[C@H](CCC(N)=O)NC(=O)[C@H](C3CCCC3)NC2=O)cc1 [Compound 14] (Y(Me)[Gly(cPent)]QNCP[Dap](Ac)G-NH2; linker N-5 via X1) | >100 fold OT |
| CC(=O)NC[C@H](NC(=O)[C@@H]1CCCN1C(=O)[C@@H]1CSCCCC(=O)N[C@@H](Cc2ccc(O)cc2)C(=O)N[C@@](C)(C(C)C)C(=O)N[C@@H](CCC(N)=O)C(=O)N[C@@H](CC(N)=O)C(=O)N1)C(=O)NCC(N)=O [Compound 15] (Y[αMeV]QNCP[Dap](Ac)G-NH2; linker N-5 via X1) | >100 fold OT |
| CC[C@H](C)[C@@H]1NC(=O)[C@](C)(Cc2ccc(O)cc2)NC(=O)CCCSC[C@@H](C(=O)N2CCC[C@H]2C(=O)N[C@@H](CCCCNC(C)=O)C(=O)NCC(N)=O)NC(=O)[C@H](CC(N)=O)NC(=O)[C@H](CCC(N)=O)NC1=O [Compound 16] ([αMeY]IQNCPK(Ac)G-NH2; linker N-5 via X1) | >100 fold OT |
| CC[C@H](C)[C@@H]1NC(=O)[C@](C)(Cc2ccc(O)cc2)NC(=O)CCCSC[C@@H](C(=O)N2CSC[C@H]2C(=O)N[C@@H](CCCCNC(C)=O)C(=O)NCC(N)=O)NC(=O)[C@H](CC(N)=O)NC(=O)[C@H](CCC(N)=O)NC1=O [Compound 17] ([αMeY]IQNC[Thz]K(Ac)G-NH2; linker N-5 via X1) | >100 fold OT |
| CC(=O)NCCCC[C@H](NC(=O)[C@@H]1CSCN1C(=O)[C@@H]1CSCCCC(=O)N[C@@](C)(Cc2ccc(O)cc2)C(=O)N[C@@H](C2CCCC2)C(=O)N[C@@H](CCC(N)=O)C(=O)N[C@@H](CC(N)=O)C(=O)N1)C(=O)NCC(N)=O [Compound 18] ([αMeY][Gly(cPent)]QNC[Thz]K(Ac)G-NH2; linker N-5 via X1) | >100 fold OT |
| CC(=O)NCCCC[C@H](NC(=O)[C@@H]1CCCN1C(=O)[C@@H]1CSCCCC(=O)N[C@@H](Cc2ccc(O)cc2)C(=O)N[C@@](C)(C(C)C)C(=O)N[C@@H](CCC(N)=O)C(=O)N[C@@H](CC(N)=O)C(=O)N1)C(=O)NCC(N)=O [Compound 19] (Y[αMeV]QNCPK(Ac)G-NH2; linker N-5 via X1) | >100 fold OT |
| CC(=O)NCCCC[C@H](NC(=O)[C@@H]1CSCN1C(=O)[C@@H]1CSCCCC(=O)N[C@@H](Cc2ccc(O)cc2)C(=O)N[C@@](C)(C(C)C)C(=O)N[C@@H](CCC(N)=O)C(=O)N[C@@H](CC(N)=O)C(=O)N1)C(=O)NCC(N)=O [Compound 20] (Y[αMeV]QNC[Thz]K(Ac)G-NH2; linker N-5 via X1) | > 100 fold OT |
| COc1ccc(C[C@@H]2NC(=O)CCCSC[C@@H](C(=O)N3CCC[C@H]3C(=O)N[C@@H](CCCCNC(C)=O)C(=O)NCC(N)=O)NC(=O)[C@H](CC(N)=O)NC(=O)[C@H](CCC(N)=O)NC(=O)[C@H](C3CCCC3)NC2=O)cc1 [Compound 21] (Y(Me)[Gly(cPent)]QNCPK(Ac)G-NH2; linker N-5 via X1) | >100 fold OT |
| CC[C@H](C)[C@@H]1NC(=O)[C@H](Cc2ccc(OC)cc2)NC(=O)CCCSC[C@@H](C(=O)N2CSC[C@H]2C(=O)N[C@@H](CCCCNC(C)=O)C(=O)NCC(N)=O)NC(=O)[C@H](CC(N)=O)NC(=O)[C@H](CCC(N)=O)NC1=O [Compound 22] (Y(Me)IQNC[Thz]K(Ac)G-NH2; linker N-5 via X1) | >100 fold OT |
| COc1ccc(C[C@@H]2NC(=O)CCCSC[C@@H](C(=O)N3CSC[C@H]3C(=O)N[C@@H](CCCCNC(C)=O)C(=O)NCC(N)=O)NC(=O)[C@H](CC(N)=O)NC(=O)[C@H](CCC(N)=O)NC(=O)[C@H](C3CCCC3)NC2=O)cc1 [Compound 23] (Y(Me)[Gly(cPent)]QNC[Thz]K(Ac)G-NH2; linker N-5 via X1) | >100 fold OT |

Biological target: T1, Human OTR (Homo sapiens, UniProt P30559)
T1 construct: expressed in transfected cells; host or cells: HEK293 (stably transfected, G418 selection)
T1 sequence (P30559 1-389): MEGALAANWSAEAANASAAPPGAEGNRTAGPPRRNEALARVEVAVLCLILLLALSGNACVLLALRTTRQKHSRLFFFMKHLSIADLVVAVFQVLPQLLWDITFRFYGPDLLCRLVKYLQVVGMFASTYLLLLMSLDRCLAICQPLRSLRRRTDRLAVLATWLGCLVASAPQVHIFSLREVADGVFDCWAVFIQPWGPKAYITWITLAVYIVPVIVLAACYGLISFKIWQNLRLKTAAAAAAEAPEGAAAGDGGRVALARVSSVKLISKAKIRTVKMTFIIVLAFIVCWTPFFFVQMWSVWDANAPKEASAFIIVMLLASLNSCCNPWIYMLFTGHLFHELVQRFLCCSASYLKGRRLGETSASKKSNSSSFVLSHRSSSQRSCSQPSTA
Assay: IP-1 accumulation in HEK293 cells stably expressing hOTR-GFP
Type: cell-based
Details: 1 h stimulation at 37° C., normalized to maximum OT response
Experimental: Cell culture for functional assays.
Measurement of inositol phosphate one (IP-1) accumulation. HEK293 cells were cultured in DMEM supplemented with 10% FBS and penicillin/streptomycin (100 U mL^−1) at 37° C. and 5% CO2. Cells were transferred into white opaque 384-well plates (CellStar®, Greiner, Austria) at ˜10,000 cells per well 48 h prior to measurement. Quantitative measurements of receptor-mediated IP-1 were performed by competitive immunoassay utilizing the IP-One assay kit [9]. HEK293 cells were assayed as per the manufacturer's protocol. Briefly, at the time of analysis, the culture media was removed and replaced with IP-1 stimulation buffer. Cells were allowed to equilibrate in the stimulation buffer at 37° C. for 15 min, followed by addition of peptide ligands (to final concentrations of 1 μM-10 μM) and subsequent stimulation for 1 h at 37° C. The stimulation was terminated by lysis and the simultaneous addition of homogenous time-resolved fluorescence resonance energy transfer reagents. The lysates were incubated for 1 h at 25° C. Fluorescence emission measurements at 620 nm and 665 nm were performed using a Spark Multimode plate reader (Tecan, Switzerland) at an excitation wavelength of 340 nm. Results were analyzed as a ratio of fluorescence intensities of 665 nm to 620 nm. […]

| Compound | EC50 |
| --- | --- |
| CC[C@H](C)[C@@H]1NC(=O)[C@H](Cc2ccc(OC)cc2)NC(=O)CCCSC[C@@H](C(=O)N(CC(=O)N[C@@H](CNC(C)=O)C(=O)NCC(N)=O)Cc2ccc(F)cc2)NC(=O)[C@H](CC(N)=O)NC(=O)[C@H](CCC(N)=O)NC1=O [Compound 8] (Y(Me)IQNC[N(4-F-Bzl)Gly][Dap](Ac)G-NH2; linker N-5 via X1) | > 0.5 µM |

Tested on: not listed separately
Assay: in vitro
Details: simulated gi fluid, pH 6.8
Experimental: as §1, §2, §3, §4

| Compound | half-life at 50 µM |
| --- | --- |
| CC[C@H](C)[C@@H]1NC(=O)[C@H](Cc2ccc(O)cc2)NC(=O)[C@@H](N)CSSC[C@@H](C(=O)N2CCC[C@H]2C(=O)N[C@@H](CC(C)C)C(=O)NCC(N)=O)NC(=O)[C@H](CC(N)=O)NC(=O)[C@H](CCC(N)=O)NC1=O [OT, oxytocin] | 8 ± 1 min |
